One may read the IC50 as the midpoint of a concentration-inhibition curve. Read a high IC50 as lower potency. By Inhibition is commonly meant how much of the control response was suppressed.

The record followed here is ChEMBL document CHEMBL1150006, “Synthesis of new imidazo[1,2-b]pyridazine isosteres of potent imidazo[4,5-b]pyridine angiotensin II antagonists” (Bioorg Med Chem Lett, 1994).

Bounds are passed on as bounds.

Test [1] deals with T1, Type-1 angiotensin II receptor (Oryctolagus cuniculus, UniProt P34976).
T1 sequence (P34976 whole entry): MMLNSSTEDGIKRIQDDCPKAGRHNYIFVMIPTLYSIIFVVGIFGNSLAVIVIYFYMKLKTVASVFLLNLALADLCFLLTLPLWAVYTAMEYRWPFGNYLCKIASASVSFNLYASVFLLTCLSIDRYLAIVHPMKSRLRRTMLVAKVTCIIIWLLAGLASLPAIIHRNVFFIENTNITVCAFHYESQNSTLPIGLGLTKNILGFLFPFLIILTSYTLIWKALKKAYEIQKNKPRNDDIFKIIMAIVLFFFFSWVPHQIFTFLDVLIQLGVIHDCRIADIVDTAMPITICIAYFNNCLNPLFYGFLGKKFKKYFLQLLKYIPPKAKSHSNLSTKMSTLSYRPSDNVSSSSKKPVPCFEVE
Briefly: In vitro binding affinity evaluated by its ability to displace the specific binding ligand 125I-SAR1, Ile8-AII from Angiotensin II receptor, type 1 in rabbit aorta membrane. It is filed as cell membranes.

The target in test [2] is T2, Type-2 angiotensin II receptor (Rattus norvegicus, UniProt P35351).
T2 sequence (P35351 whole entry): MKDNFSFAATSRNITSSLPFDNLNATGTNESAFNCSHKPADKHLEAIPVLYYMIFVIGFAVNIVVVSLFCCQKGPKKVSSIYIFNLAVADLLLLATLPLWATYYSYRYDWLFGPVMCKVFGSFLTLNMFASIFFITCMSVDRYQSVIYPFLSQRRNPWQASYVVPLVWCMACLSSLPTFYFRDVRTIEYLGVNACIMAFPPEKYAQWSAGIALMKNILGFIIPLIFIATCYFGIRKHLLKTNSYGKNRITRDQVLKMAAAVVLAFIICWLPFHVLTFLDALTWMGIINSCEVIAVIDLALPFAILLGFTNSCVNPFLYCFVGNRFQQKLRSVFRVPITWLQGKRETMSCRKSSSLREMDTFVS
Kind of test: In vitro binding affinity at AT2 receptor determined by its ability to displace the specific binding ligand [125I]-Sar1, Ile8-AII from rat brain membrane.

Test [3] concerns Rattus norvegicus. Briefly: Dose required for more than 90% maximal inhibition of blood pressure response at iv bolus administration in conscious normotensive rats. The format is functional.
The species named for test [4] is Rattus norvegicus. Kind of test: Percent inhibition exceeded duration of 6 hours. It is filed as functional.

The compound `CCc1nc2c(C)cc(C)nn2c1Cc1ccc(-c2ccccc2NS(=O)(=O)C(F)(F)F)cc1` yielded an IC50 in test [1] of 1.7 nM.
Same read-out and setting: in the case of `CCc1nc2c(C)cc(C)nn2c1Cc1ccc(-c2ccccc2S(=O)(=O)NC(=O)c2ccccc2)cc1` it was 0.8 nM.
Consider `CCc1nc2c(C)cc(C)nn2c1Cc1ccc(-c2ccccc2-c2nn[nH]n2)cc1`, for which the half-maximal inhibitory concentration (IC50) is above 10 nM in test [2] and 5.7 nM in test [1]. In test [3], the Dose was 1 mg/kg. The compound also gave an Inhibition in test [4] above 30%.
In turn, `CCc1nc2c(C)cc(C)nn2c1Cc1ccc(-c2ccccc2C(=O)O)cc1` returned an IC50 in test [1] of 83 nM.
